In patent CN101862374A, “莲子心及其提取物的新用途” (Individual, priority 2010, dated 2010):
Blank lines part the entries; values can stand above or below the compound they belong to.

Columns and labels:
[1] = system: oxidatively damaged erythrocytes [氧化损伤红细胞]; settings: cited from earlier work
[2] = system: autoxidation [自氧化]; settings: cited from earlier work
[3] = system: type II 5α-reductase [II型5α-还原酶]; assay: DHT kit assay of 5α-reductase inhibition; format: biochemical; settings: 37 °C, 30 min
[4] = system: type II 5α-reductase [II型5α-还原酶]; assay: Spectrophotometric (NADPH, 340 nm) 5α-reductase inhibition; format: biochemical; settings: for mean inhibition rate: NADPH consumption, 10 min, 37 °C, serial concentrations, average; for inhibition rate compared with finasteride: versus finasteride [非那甾胺]
[5] = system: platelets of hyperlipidemia patients and healthy persons [高脂血症患者和健康人血小板]; settings: in vitro, blood, several inducers; cited from earlier work
[6] = system: hyperlipidemia model rats [高血脂症模型大鼠]; settings: rat; cited from earlier work
[7] = system: prostate smooth muscle α1-AR [前列腺平滑肌α1-AR]; assay: Competitive inhibition of 125IBE binding to α1-AR of prostate smooth muscle membranes; parameters: species or system rat; settings: high dose
[8] = system: experimental hyperlipidemic rats [实验性高脂血症大鼠]; settings: rat; cited from earlier work
[9] = system: rat cerebral ischemia-reperfusion [大鼠脑缺血再灌注]; settings: cited from earlier work
[10] = system: rat myocardium with ischemia-reperfusion injury [大鼠缺血再灌注损伤心肌]; settings: cited from earlier work

inhibition of 5α-reductase activity by change of DHT concentration [3]: 有明显抑制作用
mean inhibition rate [4]: 65.48%
inhibition rate compared with finasteride [4]: 强于非那甾胺
SMILES: COc1ccc(C[C@@H]2c3cc(Oc4cc(C[C@@H]5c6cc(O)c(OC)cc6CCN5C)ccc4O)c(OC)cc3CCN2C)cc1 [异莲心碱]
protection of oxidatively damaged erythrocytes [1]: 对氧化损伤红细胞有保护作用
inhibition of autoxidation [2]: 能显著抑制自氧化

inhibition of 5α-reductase activity by change of DHT concentration [3]: 有明显抑制作用
inhibition of prostate smooth muscle α1-AR [7]: 能抑制前列腺平滑肌α1-AR
mean inhibition rate [4]: 68.22%
inhibition rate compared with finasteride [4]: 强于非那甾胺
SMILES: COc1ccc(C[C@@H]2c3cc(Oc4cc(C[C@@H]5c6cc(OC)c(OC)cc6CCN5C)ccc4O)c(OC)cc3CCN2C)cc1 [甲基莲心碱]
inhibition of platelet aggregation [5]: 可明显抑制多种诱聚剂诱导的高脂血症患者和健康人血小板聚集
antioxidant action of the organism [6]: 增强机体抗氧化作用
degree of lipid peroxidation [6]: 减轻脂质过氧化的程度
effect on blood lipids [6]: 具有显著的抑制作用

inhibition of 5α-reductase activity by change of DHT concentration [3]: 有明显抑制作用
inhibition of prostate smooth muscle α1-AR [7]: 能抑制前列腺平滑肌α1-AR
mean inhibition rate [4]: 71.43%
inhibition of 5α-reductase activity (in words) ([4]; by NADPH determination): 有明显抑制作用
inhibition rate compared with finasteride [4]: 强于非那甾胺
SMILES: COc1cc2c(cc1OC)[C@@H](Cc1ccc(O)c(Oc3cc4c(cc3OC)CCN(C)[C@@H]4Cc3ccc(O)cc3)c1)N(C)CC2 [莲心碱]
atherosclerosis index [8]: 显著降低
serum low-density lipoprotein cholesterol [8]: 显著降低
serum total cholesterol [8]: 显著降低
serum triglycerides [8]: 显著降低
C-Fos protein expression after cerebral ischemia-reperfusion [9]: 抑制脑缺血再灌注后NOS和C-Fos蛋白的表达
NOS expression after cerebral ischemia-reperfusion [9]: 抑制脑缺血再灌注后NOS和C-Fos蛋白的表达
extent of infarct lesion [9]: 可显著减少大鼠梗死病灶范围
area of myocardial infarction [10]: 可减少心肌梗死的面积
damage of myocardial cells [10]: 减轻心肌细胞的损伤
protection of ischemia-reperfusion injured myocardium [10]: 有保护作用

mean inhibition rate [4]: 57.14%
SMILES: CC(C)(C)NC(=O)[C@H]1CC[C@H]2[C@@H]3CC[C@H]4NC(=O)C=C[C@]4(C)[C@H]3CC[C@]12C [非那雄胺, reference compound]
